The text below walks through data of patent EP3826985B1, “DENDRIMER-TYPE COMPOUNDS, METHODS FOR PRODUCING SAME, AND USES THEREOF” (Université De Reims Champagne-Ardenne, priority 2018, dated 2020).

SMILES strings stand for the structures. Some results are limits rather than exact numbers.

This assay in a line: Metal cation trapping by dendrimer (dialysis, ICP-AES). On the procedure:
Une solution aqueuse contenant l'ion métallique (6 mL, Cf = 4.10^-5 mol/L) a été mélangée avec une solution aqueuse de II.6 (6 mL; 2.10^-6 mol/L); la solution résultante a été agitée pendant 2h à une vitesse d'agitation de 300 tours/min à température ambiante.
Une dialyse d'une heure a été réalisée en utilisant une membrane d'ester de cellulose (Cutoff 1000) dans de l'eau distillée (1L). Pour déterminer la quantité d'ion métallique extraite par le dendrimère, 10 mL de l'eau de dialyse ont été prélevés pour l'analyse ICP-AES (Spectrométrie à plasma à couplage inductif - Spectrométrie d'Emission Atomique).
L'analyse de l'eau de dialyse par ICP-AES (Thermo Scientific, iCAP 6000 Séries) a permis d'obtenir la quantité de métal résiduelle. La quantité d'ions (M^n+) présente dans la phase dendrimère a été obtenue par différence entre la quantité initiale et la quantité résiduelle.
Le pourcentage de rétention (% R) a été calculé selon l'expression suivante : %R = (n(Maq(initial))−n(Maq(final)))/(n Maq(initial)) × 100 [formula] avec n (Maq(initial)) et n (Maq(final)), les nombres de moles d'ions métalliques respectivement dans la solution de départ et dans l'eau de dialyse après extraction.

In the case of `OCC(O)COCC(COCC(COCC(COCC(COCC(COCC(O)CO)OCC(O)CO)OCC(COCC(O)CO)OCC(O)CO)OCC(COCC(COCC(O)CO)OCC(O)CO)OCC(COCC(O)CO)OCC(O)CO)OCC(COCC(O)CO)OCC(O)CO)OCC(O)CO` (stereo not shown) [II.6], the “% R” value by setting is: (Ag^+, Rapport n (Maq (initial)) / n (II.6) = 104,5) 88%; (Cd^2+, Rapport n (Maq (initial)) / n (II.6) = 73) 95,5%; (Ce^3+, Rapport n (Maq (initial)) / n (II.6) = 93) greater than 95%; (Cu^2+, Rapport n (Maq (initial)) / n (II.6) = 63,6) 75%; (Hg^2+, Rapport n (Maq (initial)) / n (II.6) = 140) 85%; (Ni^2+, Rapport n (Maq (initial)) / n (II.6) = 85,5) 89%. Moreover, the “% R” value (Pb^2+, Rapport n (Maq (initial)) / n (II.6) = 77) worked out at 99%.
